pKi: −log10 of the molar value.
What was measured:
human D2 receptor = human D2 receptor (Homo sapiens (Human), UniProt P14416); assay: Radioligand binding ([3H]-spiperone) to cloned receptors expressed in HEK-293 EBNA cells; settings: HEK293 EBNA cell membranes expressing human D2
Experimental: (§1) HEK293 EBNA cells were transiently transfected with expression plasmids encoding for the human D2 or D3 or for the human 5-HT2A receptor, respectively. The cells were harvested 48 h post-transfection, washed three times with cold PBS and stored at −80° C. prior to use. The pellet was suspended in cold 50 mM Tris-HCl buffer comprising 10 mM EDTA (pH 7.4) and was homogenized with a Polytron (Kinematica AG, Basel, Switzerland) for 20-30 sec at 12.000 rpm. After centrifugation at 48.000×g for 30 min at 4° C., the pellet was resuspended in cold 10 mM Tris-HCl buffer comprising 0.1 mM EDTA (pH 7.4), homogenized, and centrifuged as above. This pellet was further resuspended in a smaller volume of ice cold 10 mM Tris-HCl buffer comprising 0.1 mM EDTA (pH 7.4) and homogenized with a Polytron for 20-30 sec at 12.000 rpm. The protein content of this homogenate was determined with the Bio-Rad (Bradford) Protein Assay (Biorad Laboratories GmbH, München, Germany) according to the instructions of the manufacturer using gamma globulin as the standard. This homogenate was stored at −80° C. in aliquots and thawed immediately prior to use.
(§2) Aliquots of membrane preparations were thawed at RT, resupended in assay buffer (D2, D3: 50 mM Tris-HCl, 120 mM NaCl, 5 mM MgCl2, 1 mM EDTA, 5 mM KCl, 1.5 mM CaCl2, pH=7.4; 5-HT2A: 50 mM Tris-HCl, 10 mM MgCl2, 1 mM EGTA, pH=7.4), homogenized with a Polytron for 20-30 sec at 12.000 rpm and adjusted to a final concentration of approximately 7.5 μg protein/well (D2, D3) and 15 μg protein/well (5-HT2A), respectively.
(§3) The binding affinity (Ki) of the compounds was determined using radioligand binding. Membranes were incubated in a total volume of 200 μl with a fixed concentration of radioligand (final concentration approximately 0.7 nM [^3H]-spiperone for D2, 0.5 nM [^3H]-spiperone for D3, and 1.1 nM [^3H]-ketanserin for 5-HT2A) and ten concentrations of test compound in ranging between 10 μM-0.1 nM for 1 h at RT. At the end of the incubation, the reaction mixtures were filtered on to unifilter 96-well white microplates with bonded GF/C filters (Packard BioScience, Zürich, Switzerland; preincubated for 1 h in 0.1% polyethylenimine (PEI) in assay buffer) with a Filtermate 196 harvester (Packard BioScience) and washed 3 times with cold assay buffer. The nonspecific binding was determined with equally composed reaction mixtures in the presence of 10 μM unlabelled spiperone. Per well 45 μl of Microscint 40 (Perkin Elmer, Schwerzenbach, Switzerland) was added, plates for sealed, shaken for 20 min and counted for 3 min on a Topcount Microplate Scintillation Counter (Can berra Packard SA, Zürich, Switzerland) with quenching correction.
(§4) The CPM value for each duplicate of a concentration of competing compound was averaged (y1), then the % specific binding was calculated according to the equation (((y1−non-specific)/(total binding−non-specific))×100). Graphs were plotted with the % specific binding using XLfit, a curve fitting program that iteratively plots the data using Levenberg-Marquardt algorithm. The single site competition analysis equation used was y=A+((B−A)/(1+((x/C)D))), where y is the % specific binding, A is the minimum y, B is the maximum y, C is the IC50, x is the log 10 of the concentration of the competing compound and D is the slope of the curve (the Hill Coefficient). […] The affinity constant (Ki) was calculated using the Cheng-Prusoff equation Ki=(IC50/1+([L]/Kd), where [L] is the concentration of radioligand and Kd is the dissociation constant of the radioligand at the receptor as determined by the saturation isotherm.

human D3 receptor = human D3 receptor (Homo sapiens (Human), UniProt P35462); assay: as above; settings: HEK293 EBNA cell membranes expressing human D3
Experimental: as §1, §2, §3, §4

human 5-HT2A receptor = human 5-HT2A receptor (Homo sapiens (Human), UniProt P28223); assay: Radioligand binding ([3H]-ketanserin) to cloned receptors expressed in HEK-293 EBNA cells; settings: HEK293 EBNA cell membranes expressing human 5-HT2A
Experimental: as §1, §2, §3, §4

Sequence of human 5-HT2A receptor (P28223 whole entry): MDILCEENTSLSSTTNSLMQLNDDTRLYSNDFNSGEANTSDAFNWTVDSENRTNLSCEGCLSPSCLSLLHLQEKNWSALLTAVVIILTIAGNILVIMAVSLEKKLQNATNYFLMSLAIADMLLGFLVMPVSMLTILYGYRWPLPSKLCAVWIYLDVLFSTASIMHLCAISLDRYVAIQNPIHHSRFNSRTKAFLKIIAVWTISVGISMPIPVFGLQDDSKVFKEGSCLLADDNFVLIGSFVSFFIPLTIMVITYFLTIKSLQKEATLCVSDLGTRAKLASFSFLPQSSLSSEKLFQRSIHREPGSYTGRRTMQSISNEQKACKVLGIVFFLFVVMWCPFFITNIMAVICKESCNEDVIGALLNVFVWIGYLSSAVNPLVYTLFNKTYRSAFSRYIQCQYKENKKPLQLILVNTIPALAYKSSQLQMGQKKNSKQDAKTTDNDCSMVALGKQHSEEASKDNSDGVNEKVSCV
Sequence of human D2 receptor (P14416 whole entry): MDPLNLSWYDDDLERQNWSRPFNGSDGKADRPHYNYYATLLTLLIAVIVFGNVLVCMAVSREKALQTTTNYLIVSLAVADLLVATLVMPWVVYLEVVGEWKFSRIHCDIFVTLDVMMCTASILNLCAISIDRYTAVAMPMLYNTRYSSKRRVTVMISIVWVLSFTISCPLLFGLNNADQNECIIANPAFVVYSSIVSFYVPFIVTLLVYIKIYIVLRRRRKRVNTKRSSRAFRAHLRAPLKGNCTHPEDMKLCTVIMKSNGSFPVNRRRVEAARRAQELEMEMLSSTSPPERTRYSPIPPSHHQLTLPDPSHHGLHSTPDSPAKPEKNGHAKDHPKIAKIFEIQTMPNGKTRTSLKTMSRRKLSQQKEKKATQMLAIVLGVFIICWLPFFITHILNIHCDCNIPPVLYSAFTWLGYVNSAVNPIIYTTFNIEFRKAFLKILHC
Sequence of human D3 receptor (P35462 whole entry): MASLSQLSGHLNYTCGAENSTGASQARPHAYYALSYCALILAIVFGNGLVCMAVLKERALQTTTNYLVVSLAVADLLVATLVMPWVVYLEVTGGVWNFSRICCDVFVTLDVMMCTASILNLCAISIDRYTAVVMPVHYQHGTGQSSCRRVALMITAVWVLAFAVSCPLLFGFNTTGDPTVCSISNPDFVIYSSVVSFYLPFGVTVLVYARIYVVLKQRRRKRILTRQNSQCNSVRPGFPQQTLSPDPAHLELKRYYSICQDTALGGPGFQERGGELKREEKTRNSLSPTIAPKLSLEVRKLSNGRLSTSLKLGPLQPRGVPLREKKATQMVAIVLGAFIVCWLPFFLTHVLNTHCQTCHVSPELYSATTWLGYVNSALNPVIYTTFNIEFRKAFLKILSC

Structure (SMILES)	pKi (human D2 receptor)	pKi (human D3 receptor)	pKi (human 5-HT2A receptor)	melting point	D2 Ki (human D2 receptor)
O=C(N[C@H]1CC[C@H](CCN2CCC(c3cccc4c3CCO4)CC2)CC1)c1ccc(C(F)(F)F)cc1 [Example 57, trans-N-(4-{2-[4-(2,3-Dihydro-benzofuran-4-yl)-piperidin-1-yl]-ethyl}-cyclohexyl)-4-trifluoromethyl-benzamide]	5.84	7.18	6.87	228 °C	–
N#Cc1ccc(C(=O)N[C@H]2CC[C@H](CCN3CCC(c4cccc5c4CCO5)CC3)CC2)cc1 [Example 45, trans-4-Cyano-N-(4-{2-[4-(2,3-dihydro-benzofuran-4-yl)-piperidin-1-yl]-ethyl}-cyclohexyl)-benzamide]	6.72	8.10	7.65	230 °C	–
O=C(N[C@H]1CC[C@H](CCN2CCC(c3cccc4occc34)CC2)CC1)C1CCOCC1 [Example 3, Tetrahydro-pyran-4-carboxylic acid trans-{4-[2-(4-benzofuran-4-yl-piperidin-1-yl)-ethyl]-cyclohexyl}-amide]	6.52	7.92	8.66	217 °C	–
CN(C)C(=O)CCC(=O)N[C@H]1CC[C@H](CCN2CCC(c3cccc4c3CCO4)CC2)CC1 [Example 63, trans-N-(4-{2-[4-(2,3-Dihydro-benzofuran-4-yl)-piperidin-1-yl]ethyl}-cyclohexyl)-N′,N′-dimethyl-succinamide]	5.97	7.81	7.05	205 °C	–
CS(=O)(=O)c1ccc(C(=O)N[C@H]2CC[C@H](CCN3CCC(c4cccc5c4CCO5)CC3)CC2)cc1 [Example 95, trans-N-(4-{2-[4-(2,3-Dihydro-benzofuran-4-yl)-piperidin-1-yl]-ethyl}-cyclohexyl)-4-methanesulfonyl-benzamide]	6.79	7.85	7.83	236 °C	–
COCCC(=O)N[C@H]1CC[C@H](CCN2CCC(c3cccc4c3CCO4)CC2)CC1 [Example 6, trans-N-(4-{2-[4-(2,3-Dihydro-benzofuran-4-yl)-piperidin-1-yl]-ethyl}-cyclohexyl)-3-methoxy-propionamide]	6.29	8.18	7.41	182 °C	–
O=C(N[C@H]1CC[C@H](CCN2CCC(c3cccc4c3CCO4)CC2)CC1)c1ccnc2ccccc12 [Example 40, Quinoline-4-carboxylic acid trans-(4-{2-[4-(2,3-dihydro-benzofuran-4-yl)-piperidin-1-yl]-ethyl}-cyclohexyl)-amide]	6.25	8.21	7.62	211 °C	–
CN(C)C(=O)N[C@H]1CC[C@H](CCN2CCC(c3cccc4c3CCO4)CC2)CC1 [Example 83, trans-3-(4-{2-[4-(2,3-Dihydro-benzofuran-4-yl)-piperidin-1-yl]-ethyl}-cyclohexyl)-1,1-dimethyl-urea]	7.16	7.35	6.92	260 °C	–
O=C(CC1CCC1)N[C@H]1CC[C@H](CCN2CCC(c3cccc4c3CCO4)CC2)CC1 [Example 60, trans-2-Cyclobutyl-N-(4-{2-[4-(2,3-dihydro-benzofuran-4-yl)-piperidin-1-yl]-ethyl}-cyclohexyl)-acetamide]	6.52	8.21	7.35	196 °C	–
O=C(N[C@H]1CC[C@H](CCN2CCC(c3cccc4c3CCO4)CC2)CC1)c1ccc(-c2cccnc2)cc1 [Example 92, trans-N-(4-{2-[4-(2,3-Dihydro-benzofuran-4-yl)-piperidin-1-yl]-ethyl}-cyclohexyl)-4-pyridin-3-yl-benzamide]	7.00	8.27	7.60	224 °C	–
CC(C)(C)Oc1ccc(C(=O)N[C@H]2CC[C@H](CCN3CCC(c4cccc5c4CCO5)CC3)CC2)cc1 [Example 88, trans-4-tert-Butoxy-N-(4-{2-[4-(2,3-dihydro-benzofuran-4-yl)-piperidin-1-yl]-ethyl}-cyclohexyl)-benzamide]	–	7.65	7.37	216 °C	inactive
O=C(N[C@H]1CC[C@H](CCN2CCC(c3cccc4c3CCO4)CC2)CC1)c1ccc(N2CCCCC2)cc1 [Example 56, trans-N-(4-{2-[4-(2,3-Dihydro-benzofuran-4-yl)-piperidin-1-yl]-ethyl}-cyclohexyl)-4-piperidin-1-yl-benzamide]	5.64	7.14	6.86	248 °C	–
O=C(Cc1ccc2c(c1)OCO2)N[C@H]1CC[C@H](CCN2CCC(c3cccc4c3CCO4)CC2)CC1 [Example 94, trans-2-Benzo[1,3]dioxol-5-yl-N-(4-{2-[4-(2,3-dihydro-benzofuran-4-yl)-piperidin-1-yl]-ethyl}-cyclohexyl)-acetamide]	6.14	8.44	7.34	209 °C	–
O=C(CCO)N[C@H]1CC[C@H](CCN2CCC(c3cccc4c3CCO4)CC2)CC1 [Example 27, trans-N-(4-{2-[4-(2,3-Dihydro-benzofuran-4-yl)-piperidin-1-yl]-ethyl}-cyclohexyl)-3-hydroxy-propionamide]	6.46	8.19	7.21	158 °C	–
O=C(C[C@@H](O)C(F)(F)F)N[C@H]1CC[C@H](CCN2CCC(c3cccc4c3CCO4)CC2)CC1 [Example 36, trans-(R)—N-(4-{2-[4-(2,3-Dihydro-benzofuran-4-yl)-piperidin-1-yl]-ethyl}-cyclohexyl)-4,4,4-trifluoro-3-hydroxy-butyramide]	6.62	8.19	7.27	189 °C	–
O=C(N[C@H]1CC[C@H](CCN2CCC(c3cccc4c3CCO4)CC2)CC1)C(F)(F)F [Example 43, trans-N-(4-{2-[4-(2,3-Dihydro-benzofuran-4-yl)-piperidin-1-yl]-ethyl}-cyclohexyl)-2,2,2-trifluoro-acetamide]	6.54	7.66	7.26	173 °C	–
O=C(N[C@H]1CC[C@H](CCN2CCC(c3cccc4c3CCO4)CC2)CC1)c1ccc(N2CCOCC2)cc1 [Example 33, trans-N-(4-{2-[4-(2,3-Dihydro-benzofuran-4-yl)-piperidin-1-yl]-ethyl}-cyclohexyl)-4-morpholin-4-yl-benzamide]	6.89	7.98	7.75	247 °C	–
O=C(CC1COC1)N[C@H]1CC[C@H](CCN2CCC(c3cccc4c3CCO4)CC2)CC1 [Example 80, trans-N-(4-{2-[4-(2,3-Dihydro-benzofuran-4-yl)-piperidin-1-yl]-ethyl}-cyclohexyl)-2-oxetan-3-yl-acetamide]	6.71	8.37	7.26	197 °C	–
O=C(N[C@H]1CC[C@H](CCN2CCC(c3cccc4c3CCO4)CC2)CC1)c1ccccc1 [Example 17, trans-N-(4-{2-[4-(2,3-Dihydro-benzofuran-4-yl)-piperidin-1-yl]-ethyl}-cyclohexyl)-benzamide]	6.50	8.38	7.94	220 °C	–

Source: patent publication US8877778B2, “Benzofurane compounds” (Hoffmann-La Roche Inc., priority 2010, dated 2014)
